Earlier results, collected in US20020164314A1, “Ovarian hormone induced neural stem cell increase” (Neurostasis, Inc., priority 2001, published 2002).

How the values were obtained:
[1] = test system: proliferating cells in the dentate gyrus
[2] = test system: development of female characteristics in animals
[3] = corticosterone, Alonso 2000, adult rats

For Estrogen, the “number of new neurons in the dentate gyrus” value ([1]; Tanapat et al. 1999, adult female) is listed as “transient increase”, the “proliferation in the dentate gyrus” value ([1]; Tanapat et al. 1999, adult female rat) is listed as “stimulate proliferation” and the “mitotic activity in the subventricular zone” value (SVZ proliferating cells; Tanapat et al. 1999) is listed as “no mitotic activity”.
For `C[C@]12CC[C@@H]3c4ccc(O)cc4CC[C@H]3[C@@H]1CC[C@@H]2O` [β-estradiol], the “estrogenic potency relative to estriol” value ([2]; ratio versus estriol) is given as 80 times and the “estrogenic potency relative to estrone” value ([2]; ratio versus estrone) is given as 12 times.
In the case of `C[C@]12C[C@H](O)[C@H]3[C@@H](CCC4=CC(=O)CC[C@@]43C)[C@@H]1CC[C@@H]2C(=O)CO` [corticosterone], the “cell proliferation in the dentate gyrus” value [1, 3] is listed as “dramatically decreases” and the “effect on the SVZ proliferating cells” value (SVZ proliferating cells; [3]) is listed as “no effect”.
